The source made the active and inactive calls. No cut-off for these calls is given here.
Key:
[1] = biological target: Cytochrome P450 2C8 (Homo sapiens, UniProt P10632); assay: Inhibition of CYP2C8 (unknown origin); assay type: ADME
[2] = Stability in dog plasma assessed as parent compound remaining at […]; assay type: ADME, cell-free, Canis lupus familiaris; settings: read-out: Stability
[3] = biological target: Cytochrome P450 3A4 (Homo sapiens, UniProt P08684); assay: Inhibition of CYP3A4 (unknown origin) using testosterone as substrate; assay type: ADME
[4] = Stability in Non human primate plasma assessed as half life; assay type: ADME, cell-free
[5] = Stability in Non human primate plasma assessed as parent compound remaining at […]; assay type: ADME, cell-free; settings: read-out: Stability
[6] = AUC (0 to t) in ICR mouse at 5 mg/kg, iv; assay type: ADME, organism-based; settings: in vivo
[7] = biological target: Signal transducer and activator of transcription 1-alpha/beta (Homo sapiens, UniProt P42224); assay: Binding affinity to STAT1 (unknown origin) by FP assay
[8] = Clearance in Sprague-Dawley rat assessed as hepatic blood flow at 5 mg/kg, iv; assay type: ADME, organism-based; settings: in vivo
[9] = biological target: T1, Protein cereblon/Signal transducer and activator of transcription 3 (Mus musculus) (UniProt P42227+Q8C7D2); assay: In-vivo PROTAC activity at STAT3/CRBN in female CB17 SCID mouse assessed as reduction STAT3 level liver at 10 mg/kg, iv measured at 24 hrs by Western blot analysis; assay type: functional, organism-based; design: scale not given: the % may be the effect or the level left
[10] = biological target: T2, Protein cereblon/Signal transducer and activator of transcription 3 (Homo sapiens, UniProt P40763+Q96SW2); assay: PROTAC activity at his-SUMO-tagged STAT3 (127 to 688 residues)/CRBN in human PBMC cells assessed as reduction in STAT3 level upto 40 uM incubated for 20 hrs by Western blot analysis relative to control; assay type: cell-based; design: scale not given: the % may be the effect or the level left
[11] = Drug concentration in female CB17 SCID mouse tumor at 5 mg/kg, iv measured at 1 hr by LC-MS/MS analysis; assay type: ADME, organism-based, Neoplasm; settings: read-out: Ct
[12] = Apparent permeability across apical to basolateral side in human Caco-2 cells; assay type: ADME, cell-based
[13] = biological target: Protein cereblon/Signal transducer and activator of transcription 6 (Homo sapiens) (UniProt P42226+Q96SW2); assay: PROTAC activity at STAT6/CRBN in human SU-DHL-1 cells assessed as reduction in STAT6 level incubated for 20 hrs by Western blot analysis; assay type: cell-based
[14] = biological target: T2, Protein cereblon/Signal transducer and activator of transcription 3; assay: PROTAC activity at STAT3/CRBN in human MOLM16 cells assessed as reduction in STAT3 level at 340 nM incubated for 4 hrs by Western blot analysis; assay type: cell-based; design: scale not given: the % may be the effect or the level left
[15] = biological target: T2, Protein cereblon/Signal transducer and activator of transcription 3; assay: PROTAC activity at his-SUMO-tagged STAT3 (127 to 688 residues)/CRBN in human Pfeiffer cells assessed as reduction in STAT3 level upto 40 uM incubated for 4 hrs by Western blot analysis relative to control; assay type: cell-based; design: scale not given: the % may be the effect or the level left
[16] = Stability in mouse Hepatocyte assessed as half life; assay type: ADME, cell-based; settings: hepatocytes
[17] = biological target: T1, Protein cereblon/Signal transducer and activator of transcription 3 (Mus musculus); assay: In-vivo PROTAC activity at STAT3/CRBN in female CB17 SCID mouse assessed as reduction STAT3 level spleen at 10 mg/kg, iv measured at 48 hrs by Western blot analysis; assay type: functional, organism-based; design: scale not given: the % may be the effect or the level left
[18] = biological target: T2, Protein cereblon/Signal transducer and activator of transcription 3; assay: PROTAC activity at his-SUMO-tagged STAT3 (127 to 688 residues)/CRBN in human PBMC cells assessed as reduction in STAT3 level at 0.1 to 4000 nM incubated for 20 hrs by Western blot analysis relative to control; assay type: cell-based; settings: dose 0.1-4000 nM
[19] = Drug concentration in female CB17 SCID mouse spleen at 5 mg/kg, iv measured at 72 hrs by LC-MS/MS analysis; assay type: ADME, organism-based; settings: read-out: Ct
[20] = biological target: T2, Protein cereblon/Signal transducer and activator of transcription 3; assay: PROTAC activity at his-SUMO-tagged STAT3 (127 to 688 residues)/CRBN in human HeLa cells assessed as induction of STAT3 degradation incubated for 24 hrs by TECAN SPARK microplate reader analysis; assay type: cell-based
[21] = biological target: Protein cereblon/Signal transducer and activator of transcription 3 (Homo sapiens, UniProt P40763+Q96SW2, K658R); assay: (§1) PROTAC activity at STAT3/CRBN in human Pfeiffer cells transfected with STAT3 K658R mutant assessed as reduction in STAT3 level incubated for 20 hrs by Western blot analysis; assay type: cell-based
[22] = biological target: T2, Protein cereblon/Signal transducer and activator of transcription 3; assay: as §1; assay type: cell-based; settings: dose <= 40.0 µM
[23] = biological target: T1, Protein cereblon/Signal transducer and activator of transcription 3 (Mus musculus); assay: In-vivo PROTAC activity at STAT3/CRBN in female CB17 SCID mouse assessed as reduction in STAT3 level tumor at 5 mg/kg, iv measured at 72 hrs by immunobloting analysis; assay type: functional, organism-based; design: scale not given: the % may be the effect or the level left
[24] = biological target: Protein cereblon/Signal transducer and activator of transcription 4 (Homo sapiens, UniProt Q96SW2+Q14765); assay: PROTAC activity at STAT4/CRBN in human MOLM16 cells assessed as reduction in STAT4 level incubated for 4 hrs by Western blot analysis; assay type: cell-based
[25] = Drug concentration in female CB17 SCID mouse spleen at 5 mg/kg, iv measured at 48 hrs by LC-MS/MS analysis; assay type: ADME, organism-based; settings: read-out: Ct
[26] = Cmax in Sprague-Dawley rat at 5 mg/kg, iv; assay type: ADME, organism-based; settings: in vivo
[27] = biological target: Signal transducer and activator of transcription 4 (Homo sapiens) (UniProt Q14765); assay: Binding affinity to STAT4 (unknown origin) assessed as maximum inhibition by FP assay relative to control
[28] = Antiproliferative activity against human SUPM2 cells assessed as cell growth inhibition incubated for 4 days by celltiter-glo assay; assay type: functional, cell-based; settings: SUP-M2, 96 h
[29] = Drug concentration in female CB17 SCID mouse tumor at 5 mg/kg, iv measured at 72 hrs by LC-MS/MS analysis; assay type: ADME, organism-based, Neoplasm; settings: read-out: Ct
[30] = biological target: T3, Protein cereblon/Signal transducer and activator of transcription 2 (Homo sapiens) (UniProt Q96SW2+P52630); assay: PROTAC activity at STAT2/CRBN in human MOLM16 cells assessed as reduction in STAT2 level upto 40 uM incubated for 4 hrs by Western blot analysis; assay type: cell-based
[31] = biological target: T3, Protein cereblon/Signal transducer and activator of transcription 2 (Homo sapiens); assay: PROTAC activity at STAT2/CRBN in human SU-DHL-1 cells assessed as reduction in STAT2 level upto 40 uM incubated for 20 hrs by Western blot analysis; assay type: cell-based
[32] = Antitumor activity against human MOLM16 cells xenografted in mouse assessed as tumor regression at 10 to 20 mg/kg, iv; assay type: functional, MOLM-16; settings: dose 10-20 mg/kg
[33] = Antitumor activity against human MOLM16 cells xenografted in mouse assessed as tumor growth inhibition at 10 mg/kg, iv; assay type: functional, MOLM-16; settings: read-out: TGI
[34] = Drug concentration in female CB17 SCID mouse liver at 5 mg/kg, iv measured at 6 hrs by LC-MS/MS analysis; assay type: ADME, organism-based; settings: read-out: Ct
[35] = Drug concentration in female CB17 SCID mouse tumor at 5 mg/kg, iv measured at 6 hrs by LC-MS/MS analysis; assay type: ADME, organism-based, Neoplasm; settings: read-out: Ct
[36] = biological target: Signal transducer and activator of transcription 3 (Homo sapiens, UniProt P40763); assay: Binding affinity to STAT3 (unknown origin) by FP assay
[37] = Drug concentration in female CB17 SCID mouse tumor at 5 mg/kg, iv measured at 24 hrs by LC-MS/MS analysis; assay type: ADME, organism-based, Neoplasm; settings: read-out: Ct

## COC(=O)N1CC[C@H]2CC[C@@H](C(=O)N[C@@H](CCC(N)=O)C(=O)N[C@@H](Cc3ccc(F)c(F)c3)C(=O)N3CCC(CCC#Cc4cccc5c4CN(C4CCC(=O)NC4=O)C5=O)CC3)N2C(=O)[C@@H](NC(=O)c2cc3cc(C(F)(F)P(=O)(O)O)ccc3s2)C1 (some centres not stated)
[1]
  IC50: > 10 µM
[2]
  remaining at 2 h: 89%
[3]
  IC50: > 10 µM
[4]
  half-life: > 120 min
[5]
  remaining at 2 h: 101%
[6]
  AUC(0-t): 859 µg·h/mL
[7]
  IC50: 270 nM
[8]
  QH: 2.6%
[9]
  Activity: > 90%
[10]
  Activity: > 95%
[11]
  concentration at 1 h: 4810 ng/g
[12]
  Papp: 0.14 10^-6 cm/s
[13]
  Activity: Active
[14]
  Activity: 100%
[15]
  Activity: > 95%
[16]
  t1/2: > 120 min
[17]
  Activity: > 90%
[18]
  Emax: > 95%
[19]
  concentration at 72 h: 568 ng/g
[20]
  DC50: 500 nM
[21]
  DC50: 2.5 nM
[22]
  Activity: Dose-dependent-effect
[23]
  Activity: > 90%
[24]
  Activity: inactive
[25]
  concentration at 48 h: 615 ng/g
[26]
  Cmax: 82.6 µg/mL
[27]
  Imax: 100%
[28]
  IC50: 390 nM
[29]
  concentration at 72 h: 925 ng/g
[30]
  Activity: inactive
[31]
  Activity: inactive
[32]
  Activity: 100%
[33]
  inhibition in vivo at 10 mg/kg: 54%
[34]
  concentration at 6 h: 3570 ng/g
[35]
  concentration at 6 h: 3150 ng/g
[36]
  IC50: 19 nM
[37]
  concentration at 24 h: 1800 ng/g

Reference: ChEMBL document CHEMBL6092220 (J Med Chem, 2024)
